In ChEMBL document CHEMBL5634099, “Pyrrole-thiazolidinone hybrids as a new structural class of broad-spectrum anti-infectives” (Eur J Med Chem, 2023):
Values after ≈ are worked out from the molar mass of the structure shown.

Assays:
Format in all cases: functional
[1] = test system: Mycolicibacterium fortuitum; assay: Antimycobacterial activity against Mycobacterium fortuitum ATCC 6841 assessed as bacterial growth inhibition incubated for 7 days by resazurin dye based assay; conditions: ATCC 6841, 168 h, time 7 day
Escherichia coli = assay: Antibacterial activity against Escherichia coli ATCC 25922 assessed as bacterial growth inhibition incubated for 16 to 18 hrs by CLSI based susceptibility testing method; conditions: time 16-18 hrs
Staphylococcus aureus = assay: Antibacterial activity against Staphylococcus aureus ATCC 29213 assessed as bacterial growth inhibition incubated for 16 to 18 hrs by CLSI based susceptibility testing method; conditions: time 16-18 hrs
Klebsiella pneumoniae = assay: Antibacterial activity against Klebsiella pneumoniae BAA 1705 assessed as bacterial growth inhibition incubated for 16 to 18 hrs by CLSI based susceptibility testing method; conditions: time 16-18 hrs
Pseudomonas aeruginosa = assay: Antibacterial activity against Pseudomonas aeruginosa ATCC 27853 assessed as bacterial growth inhibition incubated for 16 to 18 hrs by CLSI based susceptibility testing method; conditions: time 16-18 hrs
[2] = test system: Mycobacterium tuberculosis; assay: Antimycobacterial activity against Mycobacterium tuberculosis H37Rv ATCC 27294 assessed as bacterial growth inhibition incubated for 7 days by resazurin dye based assay; conditions: H37Rv ATCC 27294, 168 h, time 7 day
Mycobacteroides chelonae = assay: Antimycobacterial activity against Mycobacteroides chelonae ATCC 35752 assessed as bacterial growth inhibition incubated for 7 days by resazurin dye based assay; conditions: ATCC 35752, 168 h, time 7 day
Acinetobacter baumannii = assay: Antibacterial activity against Acinetobacter baumannii BAA 1605 assessed as bacterial growth inhibition incubated for 16 to 18 hrs by CLSI based susceptibility testing method; conditions: time 16-18 hrs
[3] = test system: Mycobacteroides abscessus; assay: Antimycobacterial activity against Mycobacterium abscessus ATCC 19977 assessed as bacterial growth inhibition incubated for 7 days by resazurin dye based assay; conditions: ATCC 19977, 168 h, time 7 day

Q: Which results are given for `Cc1cc(/C=C2\S/C(=N/c3nccs3)NC2=O)c(C)n1-c1ccc(Cl)cc1`?
A: MIC [1]: > 64 µg/mL; MIC (Escherichia coli): > 64 µg/mL; MIC (Staphylococcus aureus): 4 µg/mL (≈ 9.64 µM); MIC (Klebsiella pneumoniae): > 64 µg/mL; MIC (Pseudomonas aeruginosa): > 64 µg/mL; MIC [2]: 8 µg/mL (≈ 19.3 µM); MIC (Mycobacteroides chelonae): > 64 µg/mL; MIC (Acinetobacter baumannii): > 64 µg/mL; MIC [3]: > 64 µg/mL

Q: Which MIC [1] does the source give for `Cc1cc(/C=C2\S/C(=N/c3nccs3)NC2=O)c(C)n1-c1cccc(Cl)c1` here?
A: The MIC was over 64 µg/mL.

Q: What about the MIC (Escherichia coli) of the same compound?
A: The MIC was over 64 µg/mL.

Q: And the MIC (Staphylococcus aureus)?
A: Its MIC is 8 µg/mL (≈ 19.3 µM).

Q: What about the MIC (Klebsiella pneumoniae) of the same compound?
A: Its MIC is over 64 µg/mL.

Q: And the MIC (Pseudomonas aeruginosa)?
A: Its MIC is over 64 µg/mL.

Q: And the MIC [2]?
A: Its MIC is over 64 µg/mL.

Q: And the MIC (Mycobacteroides chelonae)?
A: The MIC was over 64 µg/mL.

Q: What about the MIC (Acinetobacter baumannii) of the same compound?
A: Its MIC is over 64 µg/mL.

Q: And the MIC [3]?
A: The MIC was over 64 µg/mL.

Q: `Cc1ccc(-n2c(C)cc(/C=C3\S/C(=N/c4nccs4)NC3=O)c2C)cc1` was tested. Which MIC [1] did it give?
A: The MIC was over 64 µg/mL.

Q: And the MIC (Escherichia coli)?
A: Its MIC is over 64 µg/mL.

Q: What about the MIC (Staphylococcus aureus) of the same compound?
A: Its MIC is 4 µg/mL (≈ 10.1 µM).

Q: And the MIC (Klebsiella pneumoniae)?
A: The MIC was over 64 µg/mL.

Q: And the MIC (Pseudomonas aeruginosa)?
A: The MIC was over 64 µg/mL.

Q: And the MIC [2]?
A: Its MIC is 8 µg/mL (≈ 20.3 µM).

Q: What about the MIC (Mycobacteroides chelonae) of the same compound?
A: The MIC was over 64 µg/mL.

Q: And the MIC (Acinetobacter baumannii)?
A: Its MIC is over 64 µg/mL.

Q: What about the MIC [3] of the same compound?
A: Its MIC is over 64 µg/mL.

Q: With `Cc1cc(/C=C2\S/C(=N/c3nccs3)NC2=O)c(C)n1-c1ccc(C#N)c(Cl)c1` as the compound, how does the MIC [1] read?
A: Its MIC is over 64 µg/mL.

Q: And the MIC (Escherichia coli)?
A: The MIC was over 64 µg/mL.

Q: And the MIC (Staphylococcus aureus)?
A: The MIC was over 64 µg/mL.

Q: And the MIC (Klebsiella pneumoniae)?
A: Its MIC is over 64 µg/mL.

Q: What about the MIC (Pseudomonas aeruginosa) of the same compound?
A: The MIC was over 64 µg/mL.

Q: And the MIC [2]?
A: The MIC was 16 µg/mL (≈ 36.4 µM).

Q: What about the MIC (Mycobacteroides chelonae) of the same compound?
A: The MIC was over 64 µg/mL.

Q: What about the MIC (Acinetobacter baumannii) of the same compound?
A: Its MIC is over 64 µg/mL.

Q: What about the MIC [3] of the same compound?
A: The MIC was over 64 µg/mL.

Q: With `COc1ccc(-n2c(C)cc(/C=C3\S/C(=N/c4nc(C)c(C)s4)NC3=O)c2C)cc1` as the compound, how does the MIC [1] read?
A: Its MIC is over 64 µg/mL.

Q: What about the MIC (Escherichia coli) of the same compound?
A: The MIC was over 64 µg/mL.

Q: What about the MIC (Staphylococcus aureus) of the same compound?
A: The MIC was over 64 µg/mL.

Q: What about the MIC (Klebsiella pneumoniae) of the same compound?
A: Its MIC is over 64 µg/mL.

Q: And the MIC (Pseudomonas aeruginosa)?
A: Its MIC is over 64 µg/mL.

Q: And the MIC [2]?
A: Its MIC is over 64 µg/mL.

Q: What about the MIC (Mycobacteroides chelonae) of the same compound?
A: The MIC was over 64 µg/mL.

Q: What about the MIC (Acinetobacter baumannii) of the same compound?
A: Its MIC is over 64 µg/mL.

Q: And the MIC [3]?
A: Its MIC is over 64 µg/mL.

Q: Which results are given for `COc1ccc(-n2c(C)cc(/C=C3\S/C(=N/c4nccs4)NC3=O)c2C)cc1`?
A: MIC [1]: > 64 µg/mL; MIC (Escherichia coli): > 64 µg/mL; MIC (Staphylococcus aureus): 2 µg/mL (≈ 4.87 µM); MIC (Klebsiella pneumoniae): > 64 µg/mL; MIC (Pseudomonas aeruginosa): > 64 µg/mL; MIC [2]: 64 µg/mL (≈ 156 µM); MIC (Mycobacteroides chelonae): > 64 µg/mL; MIC (Acinetobacter baumannii): > 64 µg/mL; MIC [3]: > 64 µg/mL

Q: Which results are given for `Cc1cc(/C=C2\S/C(=N/c3nccs3)NC2=O)c(C)n1-c1ccccc1Cl`?
A: MIC [1]: > 64 µg/mL; MIC (Escherichia coli): > 64 µg/mL; MIC (Staphylococcus aureus): 4 µg/mL (≈ 9.64 µM); MIC (Klebsiella pneumoniae): > 64 µg/mL; MIC (Pseudomonas aeruginosa): > 64 µg/mL; MIC [2]: 16 µg/mL (≈ 38.6 µM); MIC (Mycobacteroides chelonae): > 64 µg/mL; MIC (Acinetobacter baumannii): > 64 µg/mL; MIC [3]: > 64 µg/mL

Q: How did the MIC [1] turn out when `Cc1cc(/C=C2\S/C(=N/c3nccs3)NC2=O)c(C)n1-c1ccccc1` was run?
A: The MIC was over 64 µg/mL.

Q: What about the MIC (Escherichia coli) of the same compound?
A: Its MIC is over 64 µg/mL.

Q: What about the MIC (Staphylococcus aureus) of the same compound?
A: The MIC was 2 µg/mL (≈ 5.26 µM).

Q: And the MIC (Klebsiella pneumoniae)?
A: Its MIC is over 64 µg/mL.

Q: What about the MIC (Pseudomonas aeruginosa) of the same compound?
A: Its MIC is over 64 µg/mL.

Q: What about the MIC [2] of the same compound?
A: The MIC was 8 µg/mL (≈ 21 µM).

Q: And the MIC (Mycobacteroides chelonae)?
A: Its MIC is over 64 µg/mL.

Q: And the MIC (Acinetobacter baumannii)?
A: Its MIC is over 64 µg/mL.

Q: And the MIC [3]?
A: Its MIC is over 64 µg/mL.

Q: How did the MIC [1] turn out when `Cc1cc(/C=C2\S/C(=N/c3nccs3)NC2=O)c(C)n1-c1ccc(F)cc1` was run?
A: Its MIC is over 64 µg/mL.

Q: And the MIC (Escherichia coli)?
A: The MIC was over 64 µg/mL.

Q: And the MIC (Staphylococcus aureus)?
A: The MIC was over 64 µg/mL.

Q: And the MIC (Klebsiella pneumoniae)?
A: The MIC was over 64 µg/mL.

Q: And the MIC (Pseudomonas aeruginosa)?
A: Its MIC is over 64 µg/mL.

Q: And the MIC [2]?
A: Its MIC is 4 µg/mL (≈ 10 µM).

Q: What about the MIC (Mycobacteroides chelonae) of the same compound?
A: The MIC was over 64 µg/mL.

Q: What about the MIC (Acinetobacter baumannii) of the same compound?
A: The MIC was over 64 µg/mL.

Q: And the MIC [3]?
A: Its MIC is over 64 µg/mL.

Q: `COc1ccc(-n2c(C)cc(/C=C3\S/C(=N/c4nccs4)NC3=O)c2C)cc1OC` was tested. Which MIC [1] did it give?
A: The MIC was over 64 µg/mL.

Q: What about the MIC (Escherichia coli) of the same compound?
A: The MIC was over 64 µg/mL.

Q: And the MIC (Staphylococcus aureus)?
A: Its MIC is 4 µg/mL (≈ 9.08 µM).

Q: What about the MIC (Klebsiella pneumoniae) of the same compound?
A: Its MIC is over 64 µg/mL.

Q: What about the MIC (Pseudomonas aeruginosa) of the same compound?
A: The MIC was over 64 µg/mL.

Q: And the MIC [2]?
A: The MIC was 8 µg/mL (≈ 18.2 µM).

Q: And the MIC (Mycobacteroides chelonae)?
A: Its MIC is over 64 µg/mL.

Q: What about the MIC (Acinetobacter baumannii) of the same compound?
A: Its MIC is over 64 µg/mL.

Q: And the MIC [3]?
A: The MIC was over 64 µg/mL.

Q: `Cc1nc(/N=C2\NC(=O)/C(=C/c3cc(C)n(-c4cc(Cl)ccc4O)c3C)S2)sc1C` was tested. Which MIC [1] did it give?
A: Its MIC is over 64 µg/mL.

Q: What about the MIC (Escherichia coli) of the same compound?
A: Its MIC is over 64 µg/mL.

Q: What about the MIC (Staphylococcus aureus) of the same compound?
A: Its MIC is 64 µg/mL (≈ 139 µM).

Q: And the MIC (Klebsiella pneumoniae)?
A: The MIC was over 64 µg/mL.

Q: What about the MIC (Pseudomonas aeruginosa) of the same compound?
A: Its MIC is over 64 µg/mL.

Q: And the MIC [2]?
A: Its MIC is over 64 µg/mL.

Q: And the MIC (Mycobacteroides chelonae)?
A: Its MIC is over 64 µg/mL.

Q: What about the MIC (Acinetobacter baumannii) of the same compound?
A: Its MIC is over 64 µg/mL.

Q: And the MIC [3]?
A: Its MIC is over 64 µg/mL.

Q: Which MIC [1] does the source give for `Cc1cc(/C=C2\S/C(=N/c3nccs3)NC2=O)c(C)n1-c1cc(Cl)ccc1O` here?
A: The MIC was over 64 µg/mL.

Q: What about the MIC (Escherichia coli) of the same compound?
A: The MIC was over 64 µg/mL.

Q: What about the MIC (Staphylococcus aureus) of the same compound?
A: The MIC was 1 µg/mL (≈ 2.32 µM).

Q: And the MIC (Klebsiella pneumoniae)?
A: Its MIC is over 64 µg/mL.

Q: And the MIC (Pseudomonas aeruginosa)?
A: Its MIC is over 64 µg/mL.

Q: And the MIC [2]?
A: Its MIC is 32 µg/mL (≈ 74.3 µM).

Q: What about the MIC (Mycobacteroides chelonae) of the same compound?
A: Its MIC is over 64 µg/mL.

Q: What about the MIC (Acinetobacter baumannii) of the same compound?
A: Its MIC is over 64 µg/mL.

Q: What about the MIC [3] of the same compound?
A: Its MIC is over 64 µg/mL.
